# Tested on: 945468-187-T-J2-PDC spheroids viability
# Test: Anticancer human tumor 945468-187-T-J2-PDC patient-derived rectal carcinoma cell line growth inhibition [PI3K]
# Conditions: spheroids with HUVEC and MSC; for viability, T/C: stronger effect = lower value
# Outline: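 Targeted small molecules plus PI3K inhibitors, half-log dose series from Cmax (default top 10 microM), were applied to heterotypic spheroids of cancer cells with HUVEC and MSCs. Viability indicated growth inhibition.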
# [1] = curve of first compound, second compound 0.0316 µM
# [2] = curve of first compound, second compound 0.1 µM
# [3] = curve of first compound, second compound 0.316 µM
# [4] = curve of first compound, second compound 1 µM
# [5] = curve of first compound, second compound 3.16 µM
# [6] = curve of first compound, second compound 10 µM
# [7] = second compound 0.0316 µM, first compound 0.0316 µM
# [8] = second compound 0.0316 µM, first compound 0.1 µM
# [9] = second compound 0.0316 µM, first compound 0.316 µM
# [10] = second compound 0.0316 µM, first compound 1 µM
# [11] = second compound 0.0316 µM, first compound 3.16 µM
# [12] = second compound 0.0316 µM, first compound 10 µM
# [13] = second compound 0.1 µM, first compound 0.0316 µM
# [14] = second compound 0.1 µM, first compound 0.1 µM
# [15] = second compound 0.1 µM, first compound 0.316 µM
# [16] = second compound 0.1 µM, first compound 1 µM
# [17] = second compound 0.1 µM, first compound 3.16 µM
# [18] = second compound 0.1 µM, first compound 10 µM
# [19] = second compound 0.316 µM, first compound 0.0316 µM
# [20] = second compound 0.316 µM, first compound 0.1 µM
# [21] = second compound 0.316 µM, first compound 0.316 µM
# [22] = second compound 0.316 µM, first compound 1 µM
# [23] = second compound 0.316 µM, first compound 3.16 µM
# [24] = second compound 0.316 µM, first compound 10 µM
# [25] = second compound 1 µM, first compound 0.0316 µM
# [26] = second compound 1 µM, first compound 0.1 µM
# [27] = second compound 1 µM, first compound 0.316 µM
# [28] = second compound 1 µM, first compound 1 µM
# [29] = second compound 1 µM, first compound 3.16 µM
# [30] = second compound 1 µM, first compound 10 µM
# [31] = second compound 3.16 µM, first compound 0.0316 µM
# [32] = second compound 3.16 µM, first compound 0.1 µM
# [33] = second compound 3.16 µM, first compound 0.316 µM
# [34] = second compound 3.16 µM, first compound 1 µM
# [35] = second compound 3.16 µM, first compound 3.16 µM
# [36] = second compound 3.16 µM, first compound 10 µM
# [37] = second compound 10 µM, first compound 0.0316 µM
# [38] = second compound 10 µM, first compound 0.1 µM
# [39] = second compound 10 µM, first compound 0.316 µM
# [40] = second compound 10 µM, first compound 1 µM
# [41] = second compound 10 µM, first compound 3.16 µM
# [42] = second compound 10 µM, first compound 10 µM
# 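Also: spheroids exposed to compounds for seven days before reading.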
smiles,measurement,setting,value
Cc1nc(NC(=O)N2CCCC2C(N)=O)sc1-c1ccnc(C(C)(C)C(F)(F)F)c1 (stereo not given),"viability, T/C",compound 0.0316 µM,95.8% [middle of 8 runs]
same,"viability, T/C",compound 0.1 µM,97.5% [middle of 8 runs]
same,IC50,"compound alone, run of 04/24/2023",> 10 µM
CC(Cn1ccc(-c2ccc(C#N)c(Cl)c2)n1)NC(=O)c1cc(C(C)O)[nH]n1 (stereo not given) + CC(Nc1ncnc2nc[nH]c12)c1cc2cccc(Cl)c2c(=O)n1-c1ccccc1,IC50,[1],> 10 µM
same,IC50,[2],> 10 µM
same,IC50,[3],> 10 µM
same,IC50,[4],> 10 µM
same,IC50,[5],> 10 µM
same,IC50,[6],> 10 µM
same,"viability, T/C",[7],99.9%
same,"viability, T/C",[8],75.6%
same,"viability, T/C",[9],108%
same,"viability, T/C",[10],104%
same,"viability, T/C",[11],99.9%
same,"viability, T/C",[12],89.3%
same,"viability, T/C",[13],128%
same,"viability, T/C",[14],105%
same,"viability, T/C",[15],106%
same,"viability, T/C",[16],95.3%
same,"viability, T/C",[17],117%
same,"viability, T/C",[18],127%
same,"viability, T/C",[19],111%
same,"viability, T/C",[20],86.3%
same,"viability, T/C",[21],87%
same,"viability, T/C",[22],89.3%
same,"viability, T/C",[23],91%
same,"viability, T/C",[24],91.6%
same,"viability, T/C",[25],87.2%
same,"viability, T/C",[26],97.8%
same,"viability, T/C",[27],78.4%
same,"viability, T/C",[28],88.9%
same,"viability, T/C",[29],82.6%
same,"viability, T/C",[30],106%
same,"viability, T/C",[31],92.7%
same,"viability, T/C",[32],94.1%
same,"viability, T/C",[33],103%
same,"viability, T/C",[34],89.6%
same,"viability, T/C",[35],92.3%
same,"viability, T/C",[36],85.3%
same,"viability, T/C",[37],113%
same,"viability, T/C",[38],104%
same,"viability, T/C",[39],88.7%
same,"viability, T/C",[40],111%
same,"viability, T/C",[41],109%
same,"viability, T/C",[42],108%
CNC(=O)c1ccc(N2C(=S)N(c3ccc(C#N)c(C(F)(F)F)c3)C(=O)C2(C)C)cc1F + COc1c(OCCCN2CCOCC2)ccc2c3n(c(=NC(=O)c4cnc(N)nc4)nc12)CCN3,IC50,"curve of first compound, second compound 0.00316 µM",> 10 µM
same,IC50,"curve of first compound, second compound 0.01 µM",> 10 µM
same,IC50,[1],> 10 µM
same,IC50,[2],> 10 µM
same,IC50,[3],< 0.0316 µM
same,IC50,[4],< 0.0316 µM
same,"viability, T/C","second compound 0.00316 µM, first compound 0.0316 µM",107%
same,"viability, T/C","second compound 0.00316 µM, first compound 0.1 µM",86.3%
same,"viability, T/C","second compound 0.00316 µM, first compound 0.316 µM",94.9%
same,"viability, T/C","second compound 0.00316 µM, first compound 1 µM",113%
same,"viability, T/C","second compound 0.00316 µM, first compound 3.16 µM",91.1%
same,"viability, T/C","second compound 0.00316 µM, first compound 10 µM",80%
same,"viability, T/C","second compound 0.01 µM, first compound 0.0316 µM",95.5%
same,"viability, T/C","second compound 0.01 µM, first compound 0.1 µM",92.2%
same,"viability, T/C","second compound 0.01 µM, first compound 0.316 µM",108%
same,"viability, T/C","second compound 0.01 µM, first compound 1 µM",110%
same,"viability, T/C","second compound 0.01 µM, first compound 3.16 µM",90.9%
same,"viability, T/C","second compound 0.01 µM, first compound 10 µM",72.1%
same,"viability, T/C",[7],87.8%
same,"viability, T/C",[8],93.1%
same,"viability, T/C",[9],113%
same,"viability, T/C",[10],111%
same,"viability, T/C",[11],93%
same,"viability, T/C",[12],109%
same,"viability, T/C",[13],102%
same,"viability, T/C",[14],94%
same,"viability, T/C",[15],95.9%
same,"viability, T/C",[16],81.2%
same,"viability, T/C",[17],82%
same,"viability, T/C",[18],64.4%
same,"viability, T/C",[19],33.8%
same,"viability, T/C",[20],39.6%
same,"viability, T/C",[21],48.2%
same,"viability, T/C",[22],38.6%
same,"viability, T/C",[23],38.5%
same,"viability, T/C",[24],34.7%
same,"viability, T/C",[25],18.2%
same,"viability, T/C",[26],21.1%
same,"viability, T/C",[27],17.2%
same,"viability, T/C",[28],23.1%
same,"viability, T/C",[29],23.3%
same,"viability, T/C",[30],21%
Cn1ncc(Cl)c1-c1cc(C(=O)NC(CN)Cc2cccc(F)c2)sc1Cl (stereo not given) + Cc1nc(NC(=O)N2CCCC2C(N)=O)sc1-c1ccnc(C(C)(C)C(F)(F)F)c1,IC50,[1],> 10 µM
same,IC50,[2],> 10 µM
same,IC50,[3],> 10 µM
same,IC50,[4],> 10 µM
same,IC50,[5],> 10 µM
same,IC50,[6],> 10 µM
same,"viability, T/C",[7],94%
same,"viability, T/C",[8],123%
same,"viability, T/C",[9],104%
same,"viability, T/C",[10],77.9%
same,"viability, T/C",[11],89.8%
same,"viability, T/C",[12],71.6%
same,"viability, T/C",[13],116%
same,"viability, T/C",[14],134%
same,"viability, T/C",[15],104%
same,"viability, T/C",[16],101%
same,"viability, T/C",[17],72.3%
same,"viability, T/C",[18],65.9%
same,"viability, T/C",[19],102%
same,"viability, T/C",[20],104%
same,"viability, T/C",[21],124%
same,"viability, T/C",[22],92.1%
same,"viability, T/C",[23],72.3%
same,"viability, T/C",[24],70.9%
same,"viability, T/C",[25],97.4%
same,"viability, T/C",[26],92.7%
same,"viability, T/C",[27],97.4%
same,"viability, T/C",[28],88.4%
same,"viability, T/C",[29],77.9%
same,"viability, T/C",[30],54.9%
same,"viability, T/C",[31],86.7%
same,"viability, T/C",[32],87.7%
same,"viability, T/C",[33],88%
same,"viability, T/C",[34],75.1%
same,"viability, T/C",[35],72.5%
same,"viability, T/C",[36],60%
same,"viability, T/C",[37],85.9%
same,"viability, T/C",[38],79.8%
same,"viability, T/C",[39],92.5%
same,"viability, T/C",[40],89%
same,"viability, T/C",[41],59.5%
same,"viability, T/C",[42],56.6%
CC(=O)c1c(C)c2cnc(Nc3ccc(N4CCNCC4)cn3)nc2n(C2CCCC2)c1=O,"viability, T/C",compound 0.000316 µM,105% [middle of 4 runs]
same,"viability, T/C",compound 0.00316 µM,90.6% [middle of 4 runs]
same,"viability, T/C",compound 0.01 µM,104% [middle of 4 runs]
same,IC50,curve of compound,> 0.1 µM
C=CC(=O)N1CCN(c2nc(=O)n(-c3c(C)ccnc3C(C)C)c3nc(-c4c(O)cccc4F)c(F)cc23)C(C)C1 (stereo not given) + Cc1nc(NC(=O)N2CCCC2C(N)=O)sc1-c1ccnc(C(C)(C)C(F)(F)F)c1,IC50,[1],> 10 µM
same,IC50,[2],> 10 µM
same,IC50,[3],> 10 µM
same,IC50,[4],> 10 µM
same,IC50,[5],> 10 µM
same,IC50,[6],> 10 µM
same,"viability, T/C",[7],102%
same,"viability, T/C",[8],79.7%
same,"viability, T/C",[9],96.2%
same,"viability, T/C",[10],90.1%
same,"viability, T/C",[11],128%
same,"viability, T/C",[12],113%
same,"viability, T/C",[13],117%
same,"viability, T/C",[14],121%
same,"viability, T/C",[15],97.9%
same,"viability, T/C",[16],97.5%
same,"viability, T/C",[17],95%
same,"viability, T/C",[18],106%
same,"viability, T/C",[19],117%
same,"viability, T/C",[20],156%
same,"viability, T/C",[21],102%
same,"viability, T/C",[22],106%
same,"viability, T/C",[23],101%
same,"viability, T/C",[24],96%
same,"viability, T/C",[25],102%
same,"viability, T/C",[26],111%
same,"viability, T/C",[27],100%
same,"viability, T/C",[28],91.6%
same,"viability, T/C",[29],95%
same,"viability, T/C",[30],104%
same,"viability, T/C",[31],91.2%
same,"viability, T/C",[32],107%
same,"viability, T/C",[33],83.8%
same,"viability, T/C",[34],81.9%
same,"viability, T/C",[35],82.8%
same,"viability, T/C",[36],96.2%
same,"viability, T/C",[37],70.4%
same,"viability, T/C",[38],87.8%
same,"viability, T/C",[39],81.7%
same,"viability, T/C",[40],73.7%
same,"viability, T/C",[41],87.3%
same,"viability, T/C",[42],92.9%
